Assays:
[1] = target: T1, uPAR (uPA binding site) (Homo sapiens, UniProt Q03405); assay: Competitive ELISA uPAR binding assay (immobilized urokinase)
T1 construct: purchased R&D systems
Procedure: The affinity of ARM-U2 derivatives differing in both the length of the DNP-linker substituted at position 2 of ring C and the display of negative charge density (FIG. 8, Table 1) for uPAR were assayed using a competitive ELISA binding assay. The assay involves the immobilization of urokinase, a natural high affinity ligand for uPAR followed by the addition of a fixed concentration of recombinant uPAR protein and increasing concentrations of ARM-U2 which competes with urokinase for binding to the uPA binding site of uPAR. Following several washing steps, the amount of uPAR bound is quantified by a biotinylated anti-uPAR antibody and avidin-HRP and can be fit to a competitive binding model allowing for the extraction of the uPAR/ARM-U2 Kd.
All ARM-U2 derivatives were assessed for their ability to bind selectively to recombinant uPAR in vitro using a competitive ELISA binding assay. DMSO stock solutions of each ARM-U2 derivative stored at −20° C. were titrated into wells pre-coated with human urokinase (isolated from human urine, ProSpec 1 mg/ml deI water 18.5 μM) in the presence of uPAR. Selective binding to uPAR by ARM-U2 at the uPA binding site competes with uPAR-uPA binding which is required for a positive UV 450 nm absorbance signal. Increasing concentrations of ARM-U2 displace increasing amounts of uPAR from uPA which is detected by anti-uPAR/biotin labeled antibodies followed by avidin-HRP. The sigmoidal binding isotherm of absorbance at 450 nm vs log ARM-U2 concentration can then by fit by non-linear regression analysis to obtain the IC50 for ARM-U2/uPAR binding (Equation S2) which can then be translated into a KI for ARM-U2/uPAR binding using a competitive binding model adapted from the Cheng-Prusoff equation relating KI to IC50 (Equation S3). The ELISA experiments were performed as followed: To Corning high binding 96 well flat bottom plates was added 100 μl/well of 100 nM urokinase in sterile PBS. The plates were sealed and left to incubate at 4° C. overnight. The plates were then washed 1× with 200 μl wash buffer (PBS+0.05% Tween-20) and 1× with 400 μl wash buffer. The plates were blotted on paper towel and blocked for 1 h shaking at room temp with 300 μl of a solution of thermo superblock in PBS per well. Molecule dilutions into solutions of a fixed concentration (10 nM) of uPAR were prepared in 0.025% triton-X/PBS on a separate low binding plate during the blocking hour. The plates were again washed followed by the addition of 100 μl of the ARM-U2/uPAR solution with 0.1% final DMSO concentration. The solutions were mixed by multichannel pipette, sealed, and incubated for 2 h with shaking at room temperature. The plates were then washed 1× with 200 μl wash buffer (PBS+0.05% Tween-20) and 2× with 400 μl wash buffer. The plates were blotted on a paper towel followed by the addition of 100 μl/well of a solution of biotinylated anti-uPAR antibody in 1% BSA/PBS. (R&D Systems, 3.3 μl taken from 50 μg/250 μl-1000× stock) and incubation with shaking for 1 h at room temp. The plates were washed 1× with 200 μl wash buffer and 2× with 400 μl wash buffer and blotted on a paper towel. 100 μl of avidin-HRP (stock −500× from e-bioscience) were added per well, incubated 20 min with shaking at room temp followed by washing 1× with 200 μl wash buffer and 3× with 400 μl wash buffer. The plates were blotted dry with paper towel and 100 μl of TMB substrate was added to each well. The emergence of blue color was monitored and the reaction quenched with the addition of 50 μl of 2M sulfuric acid to each well followed by measuring the absorbance at 450 nm using a fluorescence plate reader. […]

[2] = tested on: A172 glioblastoma cells; assay: Antibody-dependent cellular phagocytosis (ADCP) of A172 cells by U937 cells; format: cell-based, human; details: U937 effector cells, anti-DNP antibodies
Procedure: ADCP experiments carried out via a dual channel flow cytometry assay and were performed by measuring the % phagocytosis of A172 human glioblastoma cells by IFN-gamma primed U937 macrophage effector cells each stained with FL-1 and FL-4 dyes respectively giving rise to double positive FL-1 and FL-4 fluorescence shifts accompanying phagocytosis. These assays were performed in the presence and absence of exogenously added anti-DNP antibodies and various concentrations of each ARM-U2 derivative. Control experiments were also performed to confirm that cellular phagocytosis is occurring and is dependent on ARM-U2 binding cell surface uPAR by • 1. Performing out competitions with exogenous uPAR, • 2. Performing out-competitions with 6-ABT-4 which should bind uPAR but not anti-DNP antibodies • 3. Performing ADCP at 4 degrees Celsius where phagocytosis cannot occur and • 4. Amnis microscopic analysis of double positives identified in the ADCP assay to undergo 6-ABT-1 dependent phagocytosis.
IFNγ-primed U937 cells were stained with DiD dye (final concentration 1.9 μM) for 30 min at 37° C. A172 target cells were prepared by staining adherent cells with DiO dye (Invitrogen; final concentration 1.9 μM), and then nonenzymatically detaching the cells with 0.5 mM EDTA and EGTA. Cells were counted with trypan blue staining to verify cell viability. To measure phagocytosis, 2.5×10^4 target cells were suspended in 25 ul phenol-free low-IgG RPMI media to which 25 ul of 100 nM anti-DNP antibody (rabbit polyclonal KLH IgG, Invitrogen-100× stock) containing media was added followed by the addition of 1 ul of ARM-U2 from 100×DMSO stocks or 6-ABT-4 from 100×DMSO stocks for compound out-competition experiments, followed by the addition of 50 ul of 10^5 U937 cells in the same RPMI Assay Media resulting in a final volume of 100 uL. This experimental setup yielded an effector-to-target ratio (E:T ratios) of 4:1. For out-competition studies with exogenous uPAR, 250 ul of A-172 target cells in assay media was added directly to lyophilized 100 ug uPAR (R@D systems) to yield an 8.4 uM stock uPAR concentration, this was then combined in the manner and order described above. Eppendorfs were centrifuged at 200 rcf for 2 min then incubated at 37° C. for 1 hour or at 4° C. for 1 hr in controls establishing real phagocytosis is indeed represented by double positives in flow cytometry. Phagocytosis was halted by placing tubes on ice. […] The live cell population selected was further gated into four quadrants using dual FL-1 and FL-4 fluorescence enabling for the differentiation of effector only cells (top left quadrant-high FL-4), target only cells (bottom right quadrant-high FL-1 fluorescence), and double positive overlapping target and effector cells (top right quadrant-high FL-1 and FL-4 fluorescence). […]

[3] = target: T2, recombinant uPAR (Homo sapiens, UniProt Q03405); assay: Fluorescence quenching titration of ARM-U2 derivatives with uPAR; format: binding; details: fluorescence titration of 100 nM derivative with increasing uPAR; read-out: Kd, solution equilibrium dissociation constant with uPAR
T2 construct: purchased R&D systems
T2 sequence (Q03405 23-305): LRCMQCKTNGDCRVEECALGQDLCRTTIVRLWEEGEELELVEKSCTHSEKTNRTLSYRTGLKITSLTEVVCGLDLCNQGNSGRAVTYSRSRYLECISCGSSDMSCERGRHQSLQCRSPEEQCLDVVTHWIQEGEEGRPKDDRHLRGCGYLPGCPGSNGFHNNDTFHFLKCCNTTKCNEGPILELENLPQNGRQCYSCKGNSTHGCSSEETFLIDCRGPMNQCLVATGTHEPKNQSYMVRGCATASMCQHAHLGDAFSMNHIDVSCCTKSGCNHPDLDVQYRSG
Procedure: Selected ARM-U2 derivatives were assayed for their ability to bind recombinant uPAR using a fluorescence quenching assay. […] Increasing concentrations of recombinant uPAR were mixed with each compound containing aliquot and the fluorescence of the solution measured following 1 h equilibration times. […] To confirm that the observation of uPAR dependent fluorescence quenching was indeed due to specific binding to uPAR and to validate ARM-U2 binding to uPAR specifically via the uPA binding site, a direct binding ELISA assay was developed. In this assay, clear 96-well high-binding plates from CoStar, were loaded with 100 μl/well of 50 nM recombinant uPAR 807-UK-100-CF from R&D systems prepared from a 100 μg/ml (approx. 2.1 μM) stock of uPAR in PBS and left overnight at room temperature to equilibrate. Following equilibration, the plate was washed with wash buffer 1× (400 μl/well of 0.05% Tween/PBS), blotted dry and blocked for 1 hr with 300 ul/well of 2% BSA/PBS. Following blocking, the plate was washed with 400 ul of the wash buffer and blotted dry. […] The absorbance at 450 nm was measured using an in-house Perkin-Elmer fluorescence plate reader.
All ARM-U2 derivatives were assessed for their ability to bind selectively to recombinant uPAR in vitro using a competitive ELISA binding assay. […] Selective binding to uPAR by ARM-U2 at the uPA binding site competes with uPAR-uPA binding which is required for a positive UV 450 nm absorbance signal. Increasing concentrations of ARM-U2 displace increasing amounts of uPAR from uPA which is detected by anti-uPAR/biotin labeled antibodies followed by avidin-HRP. The sigmoidal binding isotherm of absorbance at 450 nm vs log ARM-U2 concentration can then by fit by non-linear regression analysis to obtain the IC50 for ARM-U2/uPAR binding (Equation S2) which can then be translated into a KI for ARM-U2/uPAR binding using a competitive binding model adapted from the Cheng-Prusoff equation relating KI to IC50 (Equation S3). […]

[4] = tested on: B16 melanoma tumors expressing human uPAR; assay: B16 mouse melanoma allograft model expressing human uPAR; format: in vivo
Description: The inventors also examined the efficacy of ARM-U2 in a B16−uPAR mouse allograft model developed in our laboratory. Mice immunized to produce anti-DNP IgG antibodies containing tumors expressing human uPAR, received daily treatment via intraperitoneal (IP) injection and were monitored over the course of 42 days.

T1 sequence (Q03405 23-305): as above

## O=C(O)c1cc(Nc2cc(N3CCC[C@H](C(=O)NCCCOCCOCCOCCCNc4ccc([N+](=O)[O-])cc4[N+](=O)[O-])C3)c3noc4c3c2C(=O)c2ccccc2-4)cc(C(=O)O)c1 [2-ABT-1]
[1]
  uPAR-binding affinity relative to parent ARM-U2 derivative 1-ABT-1: no increase in uPAR-binding affinity
[2]
  ADCP efficacy and potency compared to 1-ABT-1: no increase in efficacy or potency in ADCP

## O=C(O)CNC(=O)c1cccc(Nc2cc(N3CCC[C@H](C(=O)NCCCOCCOCCOCCCNc4ccc([N+](=O)[O-])cc4[N+](=O)[O-])C3)c3noc4c3c2C(=O)c2ccccc2-4)c1 [3-ABT-1]
[1]
  uPAR-binding affinity relative to parent ARM-U2 derivative 1-ABT-1: modest increase in affinity
[2]
  ADCP efficacy and potency compared to 1-ABT-1: no increase in efficacy or potency in ADCP

## O=C(O)CNc1cccc(Nc2cc(N3CCC[C@H](C(=O)NCCCOCCOCCOCCCNc4ccc([N+](=O)[O-])cc4[N+](=O)[O-])C3)c3noc4c3c2C(=O)c2ccccc2-4)c1 [4-ABT-1]
[1]
  uPAR-binding affinity relative to parent ARM-U2 derivative 1-ABT-1: modest increase in affinity
[2]
  ADCP efficacy and potency compared to 1-ABT-1: no increase in efficacy or potency in ADCP

## O=C1c2ccccc2-c2onc3c(N4CCC[C@H](C(=O)NCCCOCCOCCOCCCNc5ccc([N+](=O)[O-])cc5[N+](=O)[O-])C4)cc(Nc4cccc(S(=O)(=O)O)c4)c1c23 [5-ABT-1]
[1]
  uPAR-binding affinity relative to parent ARM-U2 derivative 1-ABT-1: no increase in uPAR-binding affinity
[2]
  ADCP efficacy and potency compared to 1-ABT-1: no increase in % phagocytosis

## O=C(CCCC(=O)NCCOCCOCCOCCOCCOCCOCCOCCNc1ccc([N+](=O)[O-])cc1[N+](=O)[O-])NCCOCCOCCOCCOCCOCCOCCOCCNC(=O)[C@H]1CCCN(c2cc(Nc3ccc(S(=O)(=O)O)cc3S(=O)(=O)O)c3c4c(onc24)-c2ccccc2C3=O)C1 [6-ABT-3]
[3]
  Kd: 18 nM

## Nc1c(N2CCCC(C(=O)NCCCOCCOCCOCCCNc3ccc([N+](=O)[O-])cc3[N+](=O)[O-])C2)cc(Nc2ccc(S(=O)(=O)O)cc2S(=O)(=O)O)c2c1C(=O)c1ccccc1C2=O (stereo not drawn) [compound 23]
[1]; calculated from the ELISA IC50
  Ki: 10 nM
[1]; competition with immobilized uPA for uPAR
  IC50: 63 nM

## COc1cccc2c1C(=O)c1c(O)c3c(c(O)c1C2=O)C[C@@](O)(C(=O)CO)C[C@@H]3O[C@H]1C[C@H](N)[C@H](O)[C@H](C)O1 [doxorubicin]
[4]; IP injections over 17 days
  average tumor volume after 17 days: approximately 200 mm^3
[4]; daily IP treatment
  mean survival: 27 days
[4]; daily IP, ARM-U2 20 mpk or 100 mpk, Dox 1 mpk, vs PBS
  tumor growth inhibition (TGI): comparable
[4]; mouse, in vivo
  persistence of tumor regression after treatment cessation: ~14 days

— patent US10633374B2, “Small molecule based antibody-recruiting compounds for cancer treatment” (YALE UNIVERSITY, priority 2015, dated 2020)
